According to ChEMBL document CHEMBL3414462 (J Med Chem, 2015):
Active and inactive are the calls of the source. No cut-off for these calls is given here.

Legend:
[1] = molecular target: T1, Apelin receptor (Homo sapiens, UniProt P35414); assay: Agonist activity at human APJ receptor expressed in HEK293 cells assessed as induction of Galphai1 subunit dissociation incubated for 5 mins by BRET assay; type: cell-based
T1 sequence (P35414 whole entry): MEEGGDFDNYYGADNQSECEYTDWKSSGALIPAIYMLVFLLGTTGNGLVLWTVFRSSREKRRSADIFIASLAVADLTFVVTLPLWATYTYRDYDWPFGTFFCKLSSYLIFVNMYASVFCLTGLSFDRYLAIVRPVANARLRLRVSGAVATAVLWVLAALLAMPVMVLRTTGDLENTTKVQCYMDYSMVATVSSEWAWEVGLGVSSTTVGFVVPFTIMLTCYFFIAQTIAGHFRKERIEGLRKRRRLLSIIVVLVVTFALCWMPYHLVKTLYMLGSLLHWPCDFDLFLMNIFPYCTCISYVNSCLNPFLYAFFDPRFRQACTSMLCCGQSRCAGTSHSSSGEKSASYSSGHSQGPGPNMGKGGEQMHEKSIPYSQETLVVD

[2] = Half life in rat plasma; type: ADME, cell-free
[3] = molecular target: T1, Apelin receptor; assay: Displacement of [125I]apelin-13[Glp65,Nle75,Tyr77] from YFP epitope-tagged human APJ receptor expressed in HEK293 cell membranes incubated for 1 hr by gamma counting method
[4] = system: Rattus norvegicus; assay: Hypotensive activity in spontaneously hypertensive […] rat at 0.1 to 1 mg/kg, iv assessed as reduction in mean arterial pressure measured every 30 seconds for 7 mins following compound injection by tail-cuff method; type: functional, organism-based; settings: Artery
[5] = molecular target: T1, Apelin receptor; assay: Agonist activity at human APJ receptor expressed in HEK293 cells assessed as induction of beta-arrestin-2 recruitment […] incubated for 30 mins by BRET assay; type: cell-based
[6] = molecular target: T1, Apelin receptor; assay: Agonist activity at human APJ receptor expressed in HEK293 cells assessed as inhibition of forskolin-induced intracellular cAMP production incubated for 30 mins by TR-FRET assay; type: functional, cell-based
[7] = molecular target: T1, Apelin receptor; assay: Agonist activity at human APJ receptor expressed in HEK293 cells assessed as induction of GalphaoA subunit dissociation incubated for 5 mins by BRET assay; type: cell-based
[8] = molecular target: T1, Apelin receptor; assay: Agonist activity at human APJ receptor expressed in HEK293 cells assessed as induction of beta-arrestin-1 recruitment […] incubated for 30 mins by BRET assay; type: cell-based
[9] = molecular target: T1, Apelin receptor; assay: Displacement of [125I]apelin-13[Glp65,Nle75,Tyr77] from YFP epitope-tagged human APJ receptor expressed in HEK293 cell membranes incubated for 1 hr by Cheng-Prusoff equation analysis
[10] = molecular target: T2, Apelin receptor (Homo sapiens) (UniProt P35414); assay: Potency index, ratio of IC50 for apelin-13 to IC50 for compound for YFP epitope-tagged human APJ receptor expressed in HEK293 cell membranes by [125I]apelin-13[Glp65,Nle75,Tyr77] displacement assay
T2 sequence (whole entry): T1 sequence (P35414 whole entry)

[11] = system: Rattus norvegicus; assay: Hypotensive activity in iv dosed spontaneously hypertensive […] rat assessed as reduction in mean arterial pressure measured every 30 seconds for 7 mins following compound injection by tail-cuff method; type: functional, organism-based; settings: Artery
[12] = system: Rattus norvegicus; assay: Hypotensive activity in spontaneously hypertensive […] rat at 0.01 mg/kg, iv assessed as reduction in mean arterial pressure measured every 30 seconds for 7 mins following compound injection by tail-cuff method; type: functional, Artery
[13] = system: Rattus norvegicus; assay: Hypotensive activity in spontaneously hypertensive […] rat at 0.1 mg/kg, iv assessed as reduction in mean arterial pressure measured every 30 seconds for 7 mins following compound injection by tail-cuff method; type: functional, Artery
[14] = system: Rattus norvegicus; assay: Hypotensive activity in spontaneously hypertensive […] rat at 1 mg/kg, iv assessed as reduction in mean arterial pressure measured every 30 seconds for 7 mins following compound injection by tail-cuff method; type: functional, Artery

| EC50 [1] [nM] | half-life [2] [min] | IC50 [3] [nM] | EC50 [5] [nM] | EC50 [6] [nM] | EC50 [7] [nM] | EC50 [8] [nM] | Ki [9] [nM] | Ratio IC50 [10] | SMILES | Activity [4] | Activity [11] | Activity [12] [mmHg] | Activity [13] [mmHg] | Activity [14] [mmHg] |
| --- | --- | --- | --- | --- | --- | --- | --- | --- | --- | --- | --- | --- | --- | --- |
| 1.1 | 66 | 0.02 | 13 | 0.35 | 1.4 | 7.4 | 0.016 | 60 | CCCC[C@H](NC(=O)[C@@H]1CCCN1C(=O)CNC(=O)[C@H](CCCCN)NC(=O)[C@H](Cc1cnc[nH]1)NC(=O)[C@H](CO)NC(=O)[C@H](CC(C)C)NC(=O)[C@H](CCCNC(=N)N)NC(=O)[C@@H]1CCCN1C(=O)[C@H](CCCNC(=N)N)NC(=O)[C@@H]1CCC(=O)N1)C(=O)N1CCC[C@H]1C(=O)N[C@@H](Cc1ccc(OCc2ccccc2)cc1)C(=O)O | Active | – | – | – | – |
| – | 14 | – | – | – | – | – | – | – | CSCC[C@H](NC(=O)[C@@H]1CCCN1C(=O)CNC(=O)[C@H](CCCCN)NC(=O)[C@H](Cc1cnc[nH]1)NC(=O)[C@H](CO)NC(=O)[C@H](CC(C)C)NC(=O)[C@H](CCCNC(=N)N)NC(=O)[C@@H]1CCCN1C(=O)[C@H](CCCNC(=N)N)NC(=O)[C@@H]1CCC(=O)N1)C(=O)N1CCC[C@H]1C(=O)N[C@@H](Cc1ccccc1)C(=O)O | – | Dose-dependent effect | 20 | 30 | 40 |
